Series [1] in a line: Metabolite profiling after single oral dose of [14C]-labelled parent drug in healthy male subjects. The series is classed as in vivo, human. The note with it: for presence in HPLC-radiochromatogram of human fecal metabolites: human feces; for presence in HPLC-radiochromatogram of human fecal metabolites / presence in HPLC-radiochromatogram of circulating metabolites / presence in HPLC-radiochromatogram of human urinary metabolites: single 100 mg oral dose of labelled compound; for presence in HPLC-radiochromatogram of circulating metabolites: human plasma; for presence in HPLC-radiochromatogram of human urinary metabolites / matrices in which the metabolite was detected (humans): human urine; for matrices in which the metabolite was detected (humans): feces, plasma. How it is done: Four normal healthy male subjects between the ages of 26 and 55 years participated in the study. The subjects entered the Clinical Research Facility 12 hours before dosing, and remained there for up to 384 hours after dosing under continuous medical observation. All subjects had fasted at least 8 hours and were given a single 100 mg oral dose of the labeled compound (˜93 μCi/subject). The dose was administered in an open fashion in the morning. A standard meal was provided 4 hours later. The dosing formulation was prepared by dissolving the radiolabeled material in citrate buffered vehicle that was prepared by adding 100 ml of water to a 4 oz. amber bottle containing a dry powder blend of citric acid and sodium citrate. Total volume of dosage given was 240 ml.
After dosing, urine samples were collected for up to 16 days between the following time points: 0-12, 12-24, 24-48, 48-72, 72-96, 96-120, 120-144, 144-168, 168-192, 192-216, 216-240, 240-264, 264-288, 288-312, 312-336, 336-360 and 360-384 hours post-dose (i.e., first sample collected between 0-12 hours, second sample collected between 12-24 hours, and so on). The total volume of the urine samples was recorded after each collection. Feces were collected as passed, from time of dosing until 384 hours after dosing.
Blood sufficient to provided a minimum of 7 ml of plasma was collected, in heparinized tubes, from each subject at 0 (just before dosing), 1, 2, 4, 6, 8, 10, 12, 16, 24, 48, 72, 96, 120, 144 and 168 hours after the dose. Within 1 hour after collection, the blood samples were centrifuged in a refrigerated centrifuge and plasma was separated from whole blood. Samples collected over the first 168 hours post-dose were divided into two aliquots (3 ml and 4 ml). The 3 ml aliquots were used for the quantitation of unchanged 3-(4-bromo-2,6-difluoro-benzyloxy)-5-[3-(4-pyrrolidin-1-yl-butyl)-ureido]-isothiazole-4-carboxylic acid amide The other 4 ml aliquots were used for the analysis of total radioactivity. For metabolite identification, blood sufficient to yield 20 ml of plasma was collected at 4, 6, 8, 12, 16 and 24 hours after the dose. All samples were labeled, immediately frozen, and stored at −20° C. until analysis.
Radioactivity in urine, feces, and plasma was measured by liquid scintillation counting. All samples were counted in a Wallac 1409 liquid scintillation counter with quench correction determined by monitoring the Compton edge of the external gamma source. Radioactivity less than twice the background value of the pre-dose matrix was considered to be below the limit of quantification.
Urine samples obtained between the following time points were pooled for each subject: 0-12, 12-24, 24-48, 48-72 hours after the dose (i.e., first sample collected between 0-12 hours, second sample collected between 12-24 hours, and so on). The pooled samples (˜100 ml) were lyophilized overnight. The residues were extracted with methanol twice (10 and 5 ml). The supernatants were combined and 0.2 ml aliquots were counted in a liquid scintillation counter to determine the extraction efficiency. The supernatants were evaporated to dryness in a Turbo Vap LV evaporator. The residues were reconstituted with 1 ml of MeOH. Aliquots (50 μl) were injected onto the HPLC column without further purification.
Fecal homogenates were pooled (up to 0-264 hours) for each subject. The pooled samples (˜10 g) were suspended in 25 ml of acetonitrile. The suspensions were sonicated for 10 min, then stirred on a magnetic stirrer for 1 hour and centrifuged. Supernatants were separated and the residues further extracted with 25 ml of acetonitrile. The two supernatants were combined and 1 ml aliquots were counted in a scintillation counter to determine the extraction efficiency. The organic solvents were evaporated to dryness in a Turbo Vap LV evaporator and the residues were reconstituted in 1 ml of MeOH:water (50:50). Aliquots (100 μl) of concentrated fecal extracts were injected onto the HPLC column. […]

A short description of series [2]: Metabolite detection in beagle dogs, methods similar to those used for human samples. The series is classed as in vivo. Particulars: dog urine, feces, bile, plasma.
The nature of series [3]: Metabolite detection in Sprague-Dawley rats, methods similar to those used for human samples. The series is classed as in vivo. Particulars: rat urine, feces, bile, plasma.

For the compound `NC(=O)c1c(OCc2c(F)cc(Br)cc2F)nsc1NC(=O)NCCCCN1CCCC1` [3-(4-Bromo-2,6-difluoro-benzyloxy)-5-[3-(4-pyrrolidin-1-yl-butyl)-ureido]-isothiazole-4-carboxylic acid amide, reference compound], in series [1], the “presence in HPLC-radiochromatogram of human fecal metabolites” value (from here on “presence … of human fecal metabolites”) is listed as “presence”, the “presence in HPLC-radiochromatogram of circulating metabolites” value (from here on “presence … of circulating metabolites”) is on record as “presence” and the “presence in HPLC-radiochromatogram of human urinary metabolites” value (from here on “presence … of human urinary metabolites”) is on record as “presence”.

Turning to `NC(=O)c1c(OCc2c(F)cc(Br)cc2F)nsc1NC(=O)NCCCCNCCCC(=O)O` [Metabolite M1, 4-(4-{3-[3-(4-bromo-2,6-difluoro-benzyloxy)-4-carbamoyl-isothiazol-5-yl]-ureido}-butylamino)-butyric acid], in series [1], the “presence … of human fecal metabolites” value was “presence”; the “matrices in which the metabolite was detected (humans)” value (from here on “matrices … (humans)”) is “detected in urine and feces of humans”; the “presence … of human urinary metabolites” value was “presence”.

Consider `NC(=O)c1c(OCc2c(F)cc(Br)cc2F)nsc1NC(=O)NCCCC[N+]1([O-])CCCC1` [Metabolite M2, 3-(4-bromo-2,6-difluoro-benzyloxy)-5-[3-(4-pyrrolidin-1-yl-N-oxide-butyl)-ureido]-isothiazole-4-carboxylic acid amide], for which, in series [1], the “matrices … (humans)” value is on record as “detected in urine of humans” and the “presence … of human urinary metabolites” value is listed as “presence”. Also, the “matrices in which the metabolite was detected (beagle dogs)” value (from here on “matrices … (beagle dogs)”) in series [2] is “in urine, feces, bile and plasma of Beagle dogs”.

Turning to `O=C(O)c1c(F)cc(Br)cc1F` [Metabolite M4, 4-bromo-2,6-difluorobenzoic acid], in series [1], the “presence … of circulating metabolites” value is “presence”; the “matrices … (humans)” value was “detected in urine and plasma”; the “presence … of human urinary metabolites” value is “presence”. Moreover, in series [3], the “matrices in which the metabolite was detected (rats)” value is reported as “found in rat urine”.

As to `CC(=O)NC(CSCc1c(F)cc(Br)cc1F)C(=O)O` (stereo not shown) [Metabolite M5, 2-Acetylamino-3-(4-bromo-2,6-difluoro-benzylsulfanyl)-propionic acid], in series [1], the “matrices … (humans)” value is recorded as “detected in urine of humans” and the “presence … of human urinary metabolites” value is recorded as “presence”. In addition, the “matrices … (beagle dogs)” value in series [2] was “detected in urine of humans and beagle dogs”.

On to `NC(=O)c1c(OCc2c(F)cc(Br)cc2F)nsc1NC(=O)NCCCCN1CC=CC1=O` [Metabolite M8, 3-(4-bromo-2,6-difluoro-benzyloxy)-5-{3-[4-(2-oxo-2,5-dihyro-pyrrol-1-yl)-butyl]-ureido}-isothiazole-4-carboxylic acid amide], for which, in series [3], the “matrices in which the metabolite was detected (rats)” value is “detected in feces, bile and plasma of beagle dogs and Sprague-Dawley Rats”. Besides, the “matrices … (beagle dogs)” value in series [2] is “detected in feces, bile and plasma of beagle dogs”.

With `NC(=O)c1c(OCc2c(F)cc(Br)cc2F)nsc1NC(=O)NCCCC(=O)O` [Metabolite M9, 4-{3-[3-(4-bromo-2,6-difluorobenzyloxy)-4-carbamoyl-isothiazol-5-yl]-ureido}-butyric acid], in series [1], the “presence … of human fecal metabolites” value is reported as “presence”; the “presence … of circulating metabolites” value is recorded as “presence”; the “matrices … (humans)” value is “detected in feces and plasma”. Besides, the “matrices … (beagle dogs)” value in series [2] is listed as “found in dog feces”.

The values above are taken from patent publication US20050256177A1, “Phenyl derivatives for the treatment of abnormal cell growth” (Pfizer Inc, priority 2004, published 2005).
